The source of these data is US20180265867A1, “NUCLEIC ACID MOLECULES WITH ENHANCED ACTIVITY” (priority 2015, published 2018).

The test system of data set [1] is GAPDH. Put plainly: Carrier-free GAPDH knockdown in different cell types (HOB, HCT116, MG63) by RT-PCR. The data set is classed as cell-based, human. The procedure: Primary human osteoblast (HOB) cells isolated from human trabecular bone and keratinocytes and fibroblasts cells were isolated from skin tissue from healthy human donors. MG63 (human osteosarcoma cell line), HCT116 (human colon cancer cell line), HEK293 (human embryonic kidney 293 cells), C2C12 (mouse myoblast cell line) and MC3T3 (mouse osteoblast precursor cell line) cell lines were obtained from American Type Culture Collection, ATCC (Manassas, Va., USA). Cells were cultured until confluence was reached. The human cell experiments were approved by the local ethics committee (Ethical approval # Ups 03-561).
At 70% confluency, a day prior to transfection, the cells were seeded at a density of 35 000 cells in a 24-well cell culture plate to achieve 60-80% confluence at the day of transfection. Cell penetrating siRNAs (cpRNAs) of different lengths were transfected at 50 nM concentrations with Magnet Assisted Transfection (MATra-si) reagent for siRNAs (IBA GmbH, Göttingen, Germany) according to the manufacturers' protocols. […]
cDNA synthesis was performed in triplicate using total RNA reverse transcribed using High Capacity cDNA reverse transcription kit (Applied Biosystems, USA), with non-template control added to ensure a lack of signal in assay background. […] Data from samples with a Ct value equal to or below 35 were further analyzed. Samples were normalized relative to endogenous control and differences in cycle number thresholds were calculated using comparative quantitation 2^−ΔΔcT method (also called the ΔΔCT method), commonly used for analyzing siRNA induced gene knockdown efficiency.
The formulas used to calculate gene knockdown were as follows: First, the ΔCT was calculated as the mean cycle threshold for the target gene minus the mean cycle thresholds for the endogenous controls ACTB, each performed in triplicates: ΔCT=CT (target gene)−CT (endogenous control). Secondly, the ΔΔCT was calculated as the ΔCT of the target minus the ΔCT of negative control (NC): ΔΔCT=ΔCT (target)−ΔCT (NC). […]

A short description of data set [2]: Thermal denaturation (Tm) of siRNA duplexes. The data set is classed as physicochemical. The conditions noted are these: for Tm: 7.5 mM phosphate buffer pH 7.0 containing 140 mM KCl, 1 μM strands, 40-95° C. The procedure:
Thermal denaturation studies of siRNA was carried out in phosphate buffer, pH 7.0, containing 140 mM KCl. UV absorbance was monitored at 260 nm in the temperature range from 40 to 95° C. using a Lambda 35 UV-Vis spectrophotometer equipped with a Peltier temperature programmer with a heating rate of 0.5° C./min. Samples (1 μM RNA) were denatured at 90° C. for 3 min followed by slow cooling to 27° C. prior to the measurements. Tm values were obtained from the maxima of the first derivatives of the melting curves. All Tm values given are the averages of three independent sets of experiments (±0.3° C. error range).

Data set [3] deals with GAPDH. The experiment in a line: Energy dependence of cpRNA uptake: transfection at 4° C. or 37° C., GAPDH knockdown. Conditions: carrier-free. It is filed as cell-based, human. The procedure:
To determine, if cellular uptake of cpRNA is an energy dependent endocytosis process, transfection experiments were performed at 4° C. and 37° C. Briefly, HCT116, HOB and MG63 cells were plated and incubated with cpRNA (dT5 or dA5 or scrambled siRNA sequence) at 4° C. or 37° C. for 4 h. After 4 h, medium was replaced with fresh medium and the cells were incubated for additional 24 h. Untreated cells were used as controls. Each transfection was performed in triplicate. […] Cellular uptake using these siRNA sequences was reduced by nearly 30% when experiments were performed at 4° C., see FIG. 4.
Next, it was investigated if the cellular uptake mechanism of cpRNA occurred by endocytosis. Transfection experiments were performed with dT5-modified cpRNA at 4° C. and found lower RNAi activity (50% gene knockdown) compared to activity at 37° C. […] Upon endocytosis, the 5-nt overhang length participated in an unknown endosomal escape mechanism that promoted cytosol transport of RNA. […] TLR-7, -8 and -9, selectively bind single-stranded DNA or RNA sequences with TLR-7 and -8 preferentially bind U and G rich sequence while TLR-9 bind CpG nt repeats. TLR3, on the other hand, nonspecifically binds the 21mer RNA duplex after dimerization of the receptor to form a 2:1 TLR3-RNA complex. […]

d = 2'-deoxy (DNA); r = 2'-OH (RNA)

For the substance “dT2: Canonical GAPDH siRNA, sense SEQ ID NO: 1, antisense SEQ ID NO: 2, dTdT 3′-overhang on both strands (sense CCGAGCCACAUCGCUCAGATT; antisense UCUGAGCGAUGUGGCUCGGTT; sugars from the 5' end r19 d2, backbone not given here) [reference compound]”, the “RNAi activity in primary cells” value in data set [1] (primary cells) is on record as “only limited activity”. Besides, in data set [2], the Tm amounted to 81.2 °C.

Take “dT5: GAPDH siRNA, sense SEQ ID NO: 3 with dT5 3′-overhang, antisense SEQ ID NO: 2 with dT2 (sense CCGAGCCACAUCGCUCAGATTTTT; antisense UCUGAGCGAUGUGGCUCGGTT; sense: sugars from the 5' end r19 d5, backbone not given here; antisense: sugars from the 5' end r19 d2, backbone not given here)”: the “GAPDH gene knockdown in different cell types” value in data set [1] (50 nM) is listed as 80%. The “knockdown efficiency compared to canonical siRNA” value in data set [1] (HOB, HCT116 and MG63 cells) is on record as 3-4 fold. Also, the Tm in data set [2] was 80.6 °C. Further, the “Δ Tm” value in data set [2] (Tm relative to canonical siRNA (dT2)) was −0.6 °C. For the same substance, the “drop in Tm” value in data set [2] (as compared to canonical siRNA) is “about 0.5 °C”. Moreover, the “GAPDH gene knockdown at 4° C.” value in data set [3] (incubation at 4° C. for 4 h, then 24 h) amounted to 50%. Moreover, in data set [3] (incubation at 37° C.), the “GAPDH gene knockdown at 37° C.” value is listed as 80%.
